From patent US5278045A, “Method and compositions to screen compounds for enhancement of the cholinergic, dopaminergic and serotonergic function” (Du Pont Merck Pharmaceutical Company, priority 1990, dated 1994)

Experiments:
ACh release = assay: Neurotransmitter release assay: stimulated ACh release from brain slices; design: species or system rat; conditions: concentration to enhance stimulated release of ACh by 100% (2-fold) over control, from dose response curves
Protocol: Male Wistar rats weighing 175-200 g were euthanatized and the brains were dissected out immediately. Slices (0.3 mm thick) from the parietal cortex were prepared manually by using a recessed Lucite® guide. Slices (1.5 mm thick) from the hippocampus and the caudate nucleus were prepared by using a slotted brain holder. All slices were subsequently cut into 0.25×0.25 mm squares with a McIlwain tissue chopper.
Labeling of transmitter stores in slices was prepared by the following methods. For ACh release, slices (approximately 100 mg wet weight) were incubated in 10 ml Krebs-Ringer (KR) medium containing (mM): NaCl(116), KCl(3), CaCl2 (1.3), MgCl2 (1.2), KH2 PO4 (1.2), Na2 SO4 (1.2), NaHCO3 (25) and glucose(11), to which 10 μCi ^3 H-choline (specific activity approx. 80 Ci/mmol: NEN) and 10 nmol unlabeled choline had been added to give a final concentration of 10^-6 M. Incubation was carried out for 30 min at 37° C. under a steady flow of 95% O2 /5% CO2. Under these conditions, part of the radioactive choline taken up is converted into radioactive ACh by cholinergic nerve endings, stored in synaptic vesicles, and released upon depolarization by high-K^+ -containing medium [Molenaar et al., 1973a]. For dopamine (DA), serotonin (5-HT), and norepinephrine (NE) release, slices (approximately 100 mg wet weight) were incubated in KR medium containing 0.01 mM nialamide at 37° C. under a steady flow of 95% O2 /5% CO2. The MAO-inhibitor nialamide was added to the medium in order to inhibit metabolism to the monoamines. Incubation was for 30 min in 10 ml of KR medium to which 10 μCi ^3 H-dopamine, ^3 H-norepinephrine, or ^3 H-5-hydroxytryptamine (specific activity 30, 45, and 78 Ci/mmol, respectively: all from NEN) had been added.
Separate experiments were performed for the release of each neurotransmitter. After labeling of the transmitter stores, the slices were washed three times with non-radioactive KR medium and transferred to a superfusion apparatus to measure the drug effects on transmitter release [Schoemaker et al., Psychopharmacology 74, 137 (1981)]. The superfusion apparatus consisted of 10 thermo-jacketed glass columns of 5 mm diameter which were provided with GF/F glass fiber filters to support the brain slices (approximately 10 mg tissue/column). Superfusion was carried out with KR medium at a rate of 0.3 ml/min. For ACh release, 10^-5 M hemicholinium-3 was added to the medium to prevent the uptake of choline formed during superfusion from phospholipids and released ACh, so that it could not be subsequently converted into newly synthesized ACh, which would be released in preference to the pre-formed, labeled ACh. The medium was delivered by a 25-channel peristaltic pump (Ismatec; Brinkman) and maintained at 37° C. by a thermostated stainless-steel heating coil before entering the superfusion column. Each column was provided with a four-way slider valve (Beckman Instruments) which allowed rapid change of low-to-high-K^+ -KR-medium and with two 10-channel, 3-way valves which were used to change form drug-free to drug-containing low- and high-K^+ -KR media.
After 15 min washout of non-specifically bound radioactivity during superfusion, the collection of fractions of 4 min (1.2 ml) each was started. After 3×4 min, the KR medium was changed to a KR medium with 25 mM KCl (ACh, 5-HT release) or 12.5 mM KCl (DA release) (high K^+ -KR medium; S1). Depolarization-induced stimulation of release by high-K^+ -KR medium was then substituted by drug- or vehicle-containing low- and high-K^+ -KR medium and superfusion continued for 3×4 min with low-K^+ -KR medium, for 1×4 min with high-K^+ -KR medium (S2), and for 2×4 min with low-K^+ -KR medium.
Compounds were added to the medium by 100-fold dilution of appropriate stock solutions (in 0.9% NaCl/H2 O) with either low- or high-K^+ -KR medium.
All superfusion fractions were collected in liquid scintillation counting vials.

DuP 996 binding protein = assay: Radioreceptor screening assay (displacement of tritiated DuP 996); design: species or system rat; conditions: inhibition of binding of 10 nM tritiated DuP 996, pH 7.4, 25° C., 60 minutes
Protocol: Male Sprague-Dawley rats (Charles River Breeding Laboratories) at 200-250 g were euthanatized by decapitation. Rat brain regions were dissected according to Heffner et al., Pharmacol. Biochem. Behav., 13, 453 (1980). Brain membranes were prepared by the method of Tam, Proc. Natl. Acad. Sci. USA, 80, 6703 (1983). The brain tissues were homogenized (20 sec) in 10 vol (wt/vol) of ice-cold 0.32M sucrose with a Brinkman Polytron (setting 8). The homogenate was centrifuged at 920×g for 10 min at 4° C. The supernatant was centrifuged at 47,000×g for 20 min. The resulting membrane pellet was resuspended in 10 vol (original wt/vol) of 50 mM Tris-HCl (pH 7.4) and incubated at 37° C. for 30 min to degrade and dissociate bound endogenous ligands. The membranes were then centrifuged at 47,000×g for 20 min and resuspended in 50 mM Tris-HCl.
Compounds to be screened were incubated with brain membranes. (1-2 mg protein) in 50 mM Tris-HCl buffer, pH 7.4, for 10 minutes in 25° C. Then 10 nM tritiated DuP 996 or its active structural analogs were added and incubated at 25° C. for 60 minutes. The samples were filtered on Whatman GF/B glass filters which had been soaked in 0.2% polyethylenimine and washed 3 times each with 5 ml of ice-cold Tris buffer. Nonspecific binding was determined by performing binding in the presence of 10 μM DuP 996. The control represents specific binding in the absence of compounds to be screened. Screened compounds which inhibited the specific binding of tritiated DuP 996 or analogs to its binding protein should be active in binding to the same protein. This is illustrated further in Example 4, Part B.

Compound | ACh Release EC100 (ACh release) | IC50 (DuP 996 binding protein)
COc1ccc(C(C#N)(Cc2ccncc2)Cc2ccncc2)cc1 [Compound 10, α-(4-Methoxyphenyl)-α-(4-pyridinylmethyl)-4-pyridinepropane nitrile] | 1,600 nM | 0.119 µM
O=C1N(c2ccccc2)c2ccccc2C1(c1cncnc1)c1cncnc1 [Compound 24, 3,3-Bis(5-pyrimidinyl)-1,3-dihydro-1-phenyl-2H-indol-2-one] | 980,000 nM | 75.9 µM
O=C1N(Cc2ccccc2)c2ccccc2C1(Cc1ccncc1)Cc1ccncc1 [Compound 19, 3,3-Bis(4-pyridinyl-methyl)-1,3-dihydro-1-(phenylmethyl)-2H-indol-2-one] | 4,500 nM | 1.17 µM
Cc1nc(CC2(Cc3csc(C)n3)C(=O)N(c3ccccc3)c3ccccc32)cs1 [Compound 30, 3,3-Bis(2-methyl-4-thiazolylmethyl)-1,3-dihydro-1-phenyl-2H-indol-2-one] | 980,000 nM | 1200 µM
O=C1N(c2ccccc2)c2ccccc2C1(Cc1cnccn1)Cc1cnccn1 [Compound 20, 3,3-Bis(2-pyrazinylmethyl)-1-phenyl-1H-indol-2(3H)-one] | 11,000 nM | 4.2 µM
O=C1N(c2ccccc2)c2ccccc2C1(Cc1ccnnc1)Cc1ccnnc1 [Compound 28, 3,3-Bis(4-pyridazinyl-methyl)-1,3-dihydro-1-phenyl-2H-indol-2-one] | 1,000,000 nM | 1000 µM
c1cnc2c(c1)C(Cc1ccncc1)(Cc1ccncc1)c1cccnc1-2 [Compound 12, 5,5-Bis(4-pyridinyl-methyl)-5H-cyclopenta(2,1-B:3,4-B')-dipyridine] | 1,400 nM | 0.168 µM
Cc1ccc2c(c1)N(c1ccccc1)C(=O)C2(Cc1ccncc1)Cc1ccncc1 [Compound 14, 3,3-Bis(4-pyridinylmethyl)-1,3-dihydro-6-methyl-1-phenyl-2H-indol-2-one] | 4,800 nM | 0.198 µM
O=C1N(c2ccccc2)c2ccccc2C1(Cc1ccncn1)Cc1ccncn1 [Compound 16, 3,3-Bis(4-pyrimidinylmethyl)-1-phenyl-1H-indol-2(3H)-one] | 3,500 nM | 0.57 µM
c1ccc2c(c1)-c1ccccc1C2(Cc1ccncc1)Cc1ccncc1 [Compound 9, 9,9-Bis(4-pyridinylmethyl)-9H-fluorene] | 340 nM | 0.062 µM
c1ccc2c(c1)Sc1ccccc1C2(Cc1ccncc1)Cc1ccncc1 [Compound 6, 4,4'-[9H-Thioxanthen-9,9-diylbis(methylene)]pryidine] | 1,500 nM | 0.051 µM
O=C1N2CCCc3cccc(c32)C1(Cc1ccncc1)Cc1ccncc1 [Compound 15, 1,1-Bis(4-pyridinylmethyl)5,6-dihydro-4H-pyrollo(3,2,1-IJ)quinolin-2(1H)-one] | 14,000 nM | 0.558 µM
Cc1ccc2c(c1)C(Cc1ccncc1)(Cc1ccncc1)c1ccccc1-2 [Compound 8, 4-[2-Methyl-9-(4-pyridinyl-methyl)-9H-fluoren-9-ylmethyl]pyridine] | 170 nM | 0.062 µM
O=C1N(c2ccccc2)c2ccccc2C1(Cc1ccncc1)CC1CCCO1 (centres unmarked) [Compound 18, 1,3-Dihydro-1-phenyl-3-(4-pyridinylmethyl)-3-(tetrahydro-2-furanyl-methyl)-2H-indol-2-one] | 34,000 nM | 1.04 µM
c1ccc(CC2(Cc3ccccn3)c3ccccc3-c3ccccc32)nc1 [Compound 29, 2-[9-(2-pyridinylmethyl)-9H-fluoren-9-ylmethyl]-pyridine] | 990,000 nM | 1100 µM
O=C1C(Cc2cccnc2)c2ccccc2N1c1ccccc1 (centres unmarked) [Compound 21, 1,3-Dihydro-1-phenyl-3-(3-pyridinylmethyl)-2H-indol-2-one] | 12,000 nM | 6.03 µM
O=C1N(c2ccccc2)c2ccccc2C1(Cc1ccncc1)Cc1cn[nH]c1 (centres unmarked) [Compound 17, 1,3-Dihydro-1-phenyl-3-(1H-pyrazol-4-ylmethyl)-3-(4-pyridinyl-methyl)-2H-indol-2-one] | 3,000 nM | 0.67 µM
O=C1c2c(Cl)cccc2C(Cc2ccncc2)(Cc2ccncc2)c2cccc(Cl)c21 [Compound 3, 10,10-Bis-(4-pyridinylmethyl)-1,8-dichloro-9(10H)-anthracenone] | 170 nM | 0.032 µM
Nc1ccc2c(c1)C(Cc1ccncc1)(Cc1ccncc1)c1ccccc1-2 [Compound 2, 9,9-Bis-(4-pyridinylmethyl)-9H-fluorene-2-amine] | 140 nM | 0.03 µM
CN1C(=O)C(Cc2ccncc2)(Cc2ccncc2)c2ccccc21 [Compound 22, 1,3-Dihydro-1-methyl-3-3-bis(4-pyridinylmethyl)-2-H-indol-2-one] | 17,000 nM | 15.9 µM
O=C1C(C(O)(c2ccccn2)c2ccccn2)c2ccccc2N1c1ccccc1 (centres unmarked) [Compound 26, 3[Bis(2-pyridinyl)-(hydroxy)methyl]-1,3-dihydro-1-phenyl-2H-indol-2-one] | 1,000,000 nM | 980 µM
CN1CCC(CC2(CC3CCN(C)CC3)C(=O)N(c3ccccc3)c3ccccc32)CC1 [Compound 25, 3,3-Bis(1-methyl-4-piperidinylmethyl)-1,3-dihydro-1-phenyl-2H-indol-2-one] | 1,200,000 nM | 970 µM
CC(=O)c1ccc2c(c1)C(Cc1ccncc1)(Cc1ccncc1)c1ccccc1-2 [Compound 1, 1-[9,9-Bis(4-pyridinylmethyl)-9H-fluoren-2-yl]-ethanone] | 170 nM | 0.02 µM
O=C1N(c2ccccc2)c2ccccc2C1(Cc1ccncc1)Cc1ccncn1 (centres unmarked) [Compound 13, 1,3-Dihydro-1-phenyl-3-(4-pyridinylmethyl)-3(4-pyrimidinylmethyl)-2H-indol-2-one] | 1,500 nM | 0.179 µM
O=C1c2ccccc2C(Cc2ccncc2)(Cc2ccncc2)c2ccccc21 [Compound 4, 10,10-Bis(4-pyridinylmethyl)-9(10H)-anthracenone] | 90 nM | 0.034 µM
